Experimental data: patent US20230085307A1, “PYRIDAZINONE COMPOUND AND HERBICIDE” (NISSAN CHEMICAL CORPORATION, priority 2019, published 2023)

Experiments:
southern crabgrass [1] = assay: Test Example 5: herbicidal effect by foliage application, plastic box (Table 20, symbol F); assay type: in vivo, southern crabgrass (Digitaria ciliaris); settings: foliage application, 320 g/ha, three weeks after application
Procedure, shortened: (§1)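 Foliar spray test: emulsion formulation diluted in water to a set application rate, sprayed onto 14-day-old plants raised in diluvial soil at 25° C to 30° C under glass. Both herbicidal effect and crop effect rated visually three weeks later.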

wheat [2] = assay: Test Example 5: effect on crop by foliage application, plastic box (Table 20, symbol e); assay type: in vivo; settings: 320 g/ha, three weeks after application
Excerpt: (§2) [Test Example 5] Herbicidal Effect Test by Foliage Application
(§3) Sterilized diluvial soil was placed in a plastic box having a length of 21 cm, a width of 13 cm, and a depth of 7 cm. The seeds of each of southern crabgrass, green foxtail, barnyard grass, wild oat, blackgrass, Italian ryegrass, windgrass, velvetleaf, redroot pigweed, lambsquarters, chickweed, false cleavers, persian speedwell, corn, soybean, rice, wheat, beet, and rapeseed were sowed in a spot-like manner and covered with the soil having a thickness of about 1.5 cm. Thereafter, the plants were grown in a greenhouse at 25° C. to 30° C. After 14-day growth of the plants, the emulsion agent of the compound of the present invention prepared according to Formulation Example 2 was diluted with water so as to achieve a predetermined herbicide amount, and the diluted emulsion agent was uniformly applied to a foliage part with a small-sized spray. Three weeks after the herbicide application, the effect of the herbicide on each plant was evaluated according to the criteria of Test Example 1.

Italian ryegrass [3] = assay: Test Example 5: herbicidal effect by foliage application, plastic box (Table 20, symbol K); assay type: in vivo, Italian ryegrass (Lolium multiflorum); settings: foliage application, 320 g/ha, three weeks after application
Procedure, shortened: as §1

wild oat [4] = assay: Test Example 4: herbicidal effect by soil treatment (Table 19, symbol I); assay type: in vivo, wild oat (Avena fatua); settings: amount of applied herbicide 320 g/ha
Procedure, shortened: (§4)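 Herbicidal effect was rated 3 weeks after treatment, using the scoring criteria of an earlier test. The compound, formulated as an emulsion and diluted in water to a set herbicide amount, had been sprayed uniformly on soil over freshly sown seeds. Growth took place in a greenhouse at 25° C. to 30° C.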

persian speedwell [5] = assay: Test Example 4: herbicidal effect by soil treatment (Table 19, symbol R); assay type: in vivo, Persian speedwell (Veronica persica); settings: amount of applied herbicide 320 g/ha
Procedure, shortened: as §4

blackgrass [6] = assay: Test Example 5: herbicidal effect by foliage application, plastic box (Table 20, symbol J); assay type: in vivo, blackgrass (Alopecurus myosuroides); settings: foliage application, 320 g/ha, three weeks after application
Procedure, shortened: as §1

lambsquarters [7] = assay: Test Example 4: herbicidal effect by soil treatment (Table 19, symbol O); assay type: in vivo, lambsquarters (Chenopodium album); settings: amount of applied herbicide 320 g/ha
Procedure, shortened: as §4

barnyard grass [8] = assay: Test Example 3: herbicidal effect by foliage application, Wagner pot (Table 18, symbol H); assay type: in vivo, barnyard grass (Echinochloa crus-galli); settings: 320 g/ha
Procedure, shortened: (§5)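 Plants were sown in alluvial soil held under 0.1–0.5 cm standing water and grown 14 days in a greenhouse at 25–30 °C. An emulsifiable formulation, water-diluted to the set dose, was then sprayed onto the foliage, and effects were scored three weeks later using previously defined criteria.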

beet [9] = assay: Test Example 5: effect on crop by foliage application, plastic box (Table 20, symbol f); assay type: in vivo; settings: 320 g/ha, three weeks after application
Excerpt: as §2, §3

velvetleaf [10] = assay: Test Example 5: herbicidal effect by foliage application, plastic box (Table 20, symbol M); assay type: in vivo, velvetleaf (Abutilon theophrasti); settings: foliage application, 320 g/ha, three weeks after application
Procedure, shortened: as §1

redroot pigweed [11] = assay: Test Example 5: herbicidal effect by foliage application, plastic box (Table 20, symbol N); assay type: in vivo, redroot pigweed (Amaranthus retroflexus); settings: foliage application, 320 g/ha, three weeks after application
Procedure, shortened: as §1

rice flat sedge = assay: Test Example 3: herbicidal effect by foliage application, Wagner pot (Table 18, symbol E); assay type: in vivo, rice flat sedge (Cyperus iria); settings: 320 g/ha
Procedure, shortened: as §5

redroot pigweed [12] = assay: Test Example 4: herbicidal effect by soil treatment (Table 19, symbol N); assay type: in vivo, redroot pigweed (Amaranthus retroflexus); settings: amount of applied herbicide 320 g/ha
Procedure, shortened: as §4

windgrass [13] = assay: Test Example 5: herbicidal effect by foliage application, plastic box (Table 20, symbol L); assay type: in vivo, windgrass (Apera spica-venti); settings: foliage application, 320 g/ha, three weeks after application
Procedure, shortened: as §1

barnyard grass [14] = assay: Test Example 4: herbicidal effect by soil treatment (Table 19, symbol H); assay type: in vivo, barnyard grass (Echinochloa crus-galli); settings: amount of applied herbicide 320 g/ha
Procedure, shortened: as §4

corn [15] = assay: Test Example 4: effect on crop by soil treatment (Table 19, symbol c); assay type: in vivo; settings: amount of applied herbicide 320 g/ha
Procedure, shortened: as §4

rapeseed [16] = assay: Test Example 5: effect on crop by foliage application, plastic box (Table 20, symbol g); assay type: in vivo; settings: 320 g/ha, three weeks after application
Excerpt: as §2, §3

chickweed [17] = assay: Test Example 4: herbicidal effect by soil treatment (Table 19, symbol P); assay type: in vivo, common chickweed (Stellaria media); settings: amount of applied herbicide 320 g/ha
Procedure, shortened: as §4

windgrass [18] = assay: Test Example 4: herbicidal effect by soil treatment (Table 19, symbol L); assay type: in vivo, windgrass (Apera spica-venti); settings: amount of applied herbicide 320 g/ha
Procedure, shortened: as §4

velvetleaf [19] = assay: Test Example 4: herbicidal effect by soil treatment (Table 19, symbol M); assay type: in vivo, velvetleaf (Abutilon theophrasti); settings: amount of applied herbicide 320 g/ha
Procedure, shortened: as §4

green foxtail [20] = assay: Test Example 4: herbicidal effect by soil treatment (Table 19, symbol G); assay type: in vivo, green foxtail (Setaria viridis); settings: amount of applied herbicide 320 g/ha
Procedure, shortened: as §4

southern crabgrass [21] = assay: Test Example 4: herbicidal effect by soil treatment (Table 19, symbol F); assay type: in vivo, southern crabgrass (Digitaria ciliaris); settings: amount of applied herbicide 320 g/ha
Procedure, shortened: as §4

chickweed [22] = assay: Test Example 5: herbicidal effect by foliage application, plastic box (Table 20, symbol P); assay type: in vivo, common chickweed (Stellaria media); settings: foliage application, 320 g/ha, three weeks after application
Procedure, shortened: as §1

blackgrass [23] = assay: Test Example 4: herbicidal effect by soil treatment (Table 19, symbol J); assay type: in vivo, blackgrass (Alopecurus myosuroides); settings: amount of applied herbicide 320 g/ha
Procedure, shortened: as §4

soybean [24] = assay: Test Example 4: effect on crop by soil treatment (Table 19, symbol d); assay type: in vivo; settings: amount of applied herbicide 320 g/ha
Procedure, shortened: as §4

Chinese sprangletop = assay: Test Example 3: herbicidal effect by foliage application, Wagner pot (Table 18, symbol D); assay type: in vivo, chinese sprangletop (Leptochloa chinensis); settings: 320 g/ha
Procedure, shortened: as §5

corn [25] = assay: Test Example 5: effect on crop by foliage application, plastic box (Table 20, symbol c); assay type: in vivo; settings: 320 g/ha, three weeks after application
Excerpt: as §2, §3

directly sowed rice = assay: Test Example 3: effect on crop by foliage application, Wagner pot (Table 18, symbol b); assay type: in vivo; settings: 320 g/ha
Procedure, shortened: as §5

wheat [26] = assay: Test Example 4: effect on crop by soil treatment (Table 19, symbol e); assay type: in vivo; settings: amount of applied herbicide 320 g/ha
Procedure, shortened: as §4

green foxtail [27] = assay: Test Example 5: herbicidal effect by foliage application, plastic box (Table 20, symbol G); assay type: in vivo, green foxtail (Setaria viridis); settings: foliage application, 320 g/ha, three weeks after application
Procedure, shortened: as §1

soybean [28] = assay: Test Example 5: effect on crop by foliage application, plastic box (Table 20, symbol d); assay type: in vivo; settings: 320 g/ha, three weeks after application
Procedure, shortened: as §1

wild oat [29] = assay: Test Example 5: herbicidal effect by foliage application, plastic box (Table 20, symbol I); assay type: in vivo, wild oat (Avena fatua); settings: foliage application, 320 g/ha, three weeks after application
Procedure, shortened: as §1

barnyard grass [30] = assay: Test Example 5: herbicidal effect by foliage application, plastic box (Table 20, symbol H); assay type: in vivo, barnyard grass (Echinochloa crus-galli); settings: foliage application, 320 g/ha, three weeks after application
Procedure, shortened: as §1

persian speedwell [31] = assay: Test Example 5: herbicidal effect by foliage application, plastic box (Table 20, symbol R); assay type: in vivo, Persian speedwell (Veronica persica); settings: foliage application, 320 g/ha, three weeks after application
Procedure, shortened: as §1

lambsquarters [32] = assay: Test Example 5: herbicidal effect by foliage application, plastic box (Table 20, symbol O); assay type: in vivo, lambsquarters (Chenopodium album); settings: foliage application, 320 g/ha, three weeks after application
Procedure, shortened: as §1

rapeseed [33] = assay: Test Example 4: effect on crop by soil treatment (Table 19, symbol g); assay type: in vivo; settings: amount of applied herbicide 320 g/ha
Procedure, shortened: as §4

Italian ryegrass [34] = assay: Test Example 4: herbicidal effect by soil treatment (Table 19, symbol K); assay type: in vivo, Italian ryegrass (Lolium multiflorum); settings: amount of applied herbicide 320 g/ha
Procedure, shortened: as §4

beet [35] = assay: Test Example 4: effect on crop by soil treatment (Table 19, symbol f); assay type: in vivo; settings: amount of applied herbicide 320 g/ha
Procedure, shortened: as §4

In the case of `COc1ccc2c(-c3c(O)c(N)nn(C)c3=O)c(-c3ccccc3OC)sc2c1` [Compound No. 3-087, 6-amino-5-hydroxy-4-(6-methoxy-2-(2-methoxyphenyl)benzo[b]thiophen-3-yl)-2-methyl pyridazin-3(2H)-one], the “F: southern crabgrass, herbicidal effect grade” value (southern crabgrass [1]) is reported as 0 (Herbicidal rate of 5% or less (almost no effect)), the “e: wheat, effect on crop grade” value (wheat [2]) is reported as 0 (Herbicidal rate of 5% or less (almost no effect)) and the “K: Italian ryegrass, herbicidal effect grade” value (Italian ryegrass [3]) is reported as 1 (Herbicidal rate of 5% or more and less than 20%). For the same compound, the “I: wild oat, herbicidal effect grade” value (wild oat [4]) was 0 (Herbicidal rate of 5% or less (almost no effect)), the “R: persian speedwell, herbicidal effect grade” value (persian speedwell [5]) was 3 (Herbicidal rate of 40% or more and less than 70%) and the “J: blackgrass, herbicidal effect grade” value (blackgrass [6]) was 4 (Herbicidal rate of 70% or more and less than 90%). The “O: lambsquarters, herbicidal effect grade” value (lambsquarters [7]) was 0 (Herbicidal rate of 5% or less (almost no effect)), the “herbicidal effect on barnyard grass (H)” value (barnyard grass [8]) was 4 (Herbicidal rate of 70% or more and less than 90%) and the “f: beet, effect on crop grade” value (beet [9]) was 4 (Herbicidal rate of 70% or more and less than 90%). For the same compound, the “M: velvetleaf, herbicidal effect grade” value (velvetleaf [10]) was 0 (Herbicidal rate of 5% or less (almost no effect)), the “N: redroot pigweed, herbicidal effect grade” value (redroot pigweed [11]) was 1 (Herbicidal rate of 5% or more and less than 20%) and the “herbicidal effect on rice flat sedge (E)” value (rice flat sedge) was 3 (Herbicidal rate of 40% or more and less than 70%). The “N: redroot pigweed, herbicidal effect grade” value (redroot pigweed [12]) was 0 (Herbicidal rate of 5% or less (almost no effect)), the melting point was 286 to 288 °C and the “L: windgrass, herbicidal effect grade” value (windgrass [13]) was 5 (Herbicidal rate of 90% or more (almost completely withered)). The “H: barnyard grass, herbicidal effect grade” value (barnyard grass [14]) was 0 (Herbicidal rate of 5% or less (almost no effect)), the “c: corn, effect on crop grade” value (corn [15]) was 0 (Herbicidal rate of 5% or less (almost no effect)) and the “g: rapeseed, effect on crop grade” value (rapeseed [16]) was 4 (Herbicidal rate of 70% or more and less than 90%). The “P: chickweed, herbicidal effect grade” value (chickweed [17]) was 3 (Herbicidal rate of 40% or more and less than 70%), the “L: windgrass, herbicidal effect grade” value (windgrass [18]) was 0 (Herbicidal rate of 5% or less (almost no effect)) and the “M: velvetleaf, herbicidal effect grade” value (velvetleaf [19]) was 0 (Herbicidal rate of 5% or less (almost no effect)). The “G: green foxtail, herbicidal effect grade” value (green foxtail [20]) was 0 (Herbicidal rate of 5% or less (almost no effect)), the “F: southern crabgrass, herbicidal effect grade” value (southern crabgrass [21]) was 0 (Herbicidal rate of 5% or less (almost no effect)) and the “P: chickweed, herbicidal effect grade” value (chickweed [22]) was 5 (Herbicidal rate of 90% or more (almost completely withered)). For the same compound, the “J: blackgrass, herbicidal effect grade” value (blackgrass [23]) was 0 (Herbicidal rate of 5% or less (almost no effect)), the “d: soybean, effect on crop grade” value (soybean [24]) was 0 (Herbicidal rate of 5% or less (almost no effect)) and the “herbicidal effect on Chinese sprangletop (D)” value (Chinese sprangletop) was 0 (Herbicidal rate of 5% or less (almost no effect)). For the same compound, the “c: corn, effect on crop grade” value (corn [25]) was 0 (Herbicidal rate of 5% or less (almost no effect)), the “effect on directly sowed rice (b)” value (directly sowed rice) was 1 (Herbicidal rate of 5% or more and less than 20%) and the “e: wheat, effect on crop grade” value (wheat [26]) was 0 (Herbicidal rate of 5% or less (almost no effect)). The “G: green foxtail, herbicidal effect grade” value (green foxtail [27]) was 0 (Herbicidal rate of 5% or less (almost no effect)), the “d: soybean, effect on crop grade” value (soybean [28]) was 0 (Herbicidal rate of 5% or less (almost no effect)) and the “I: wild oat, herbicidal effect grade” value (wild oat [29]) was 0 (Herbicidal rate of 5% or less (almost no effect)). The “H: barnyard grass, herbicidal effect grade” value (barnyard grass [30]) was 3 (Herbicidal rate of 40% or more and less than 70%), the “R: persian speedwell, herbicidal effect grade” value (persian speedwell [31]) was 4 (Herbicidal rate of 70% or more and less than 90%) and the “O: lambsquarters, herbicidal effect grade” value (lambsquarters [32]) was 0 (Herbicidal rate of 5% or less (almost no effect)). The “g: rapeseed, effect on crop grade” value (rapeseed [33]) was 0 (Herbicidal rate of 5% or less (almost no effect)), the “K: Italian ryegrass, herbicidal effect grade” value (Italian ryegrass [34]) was 0 (Herbicidal rate of 5% or less (almost no effect)) and the “f: beet, effect on crop grade” value (beet [35]) was 0 (Herbicidal rate of 5% or less (almost no effect)).
